SMILES strings stand for the structures.

For one assay, the system named is Borrelia burgdorferi. Kind of assay: DNP hyperthermia, Lyme disease (Example 3). The class given is in vivo, human. The protocol:
Pretreatment protocol: the evening prior treatment the patient was instructed not to eat and dress in cotton undergarments. Approximately 4 hours prior to treatment 2 mg alprazolam was administered by mouth. The patient dressed themself into a dry cold water immersion suit (Stearns, previously described) with headgear. Monitoring sensors, including EKG display, IV fluids and Foley catheter were attached and the suit was zipped closed. The patient opted for oxygen supplementation. The modified face mask was connected to the TEEM 100 metabolic Analysis System for V02 measurements. Data was recorded as previously described.
The patient was infused with 1 mg/kg DNP over a 2 minute period. V02 increased and stabilized at 250 cc/min, 5.3 cc/kg/min. A second dose of 2.0 mg/kg was infused over a 2 minute period and the V02 peaked at 400 cc/min, 8.8 cc 02/kg/min. An additional dose of 1.0 mg/kg DNP was given 30 minutes after the second dose. The V02 increased and reached a stable plateau at 600 cc/min, […]. […] V02 increased back to 680-710 cc/min. […] The patient periodically requested the V02 monitoring mask be removed during the hyperthermia treatment period. They were accommodated with removal of the mask on two occasions for periods not exceeding 10 minutes. […] The treatment was terminated 4 hours and 10 minutes after the initial dose of DNP. Twenty five minutes after the patient was removed from the neoprene survival suit, the rectal core temperature dropped to 38.5° C. Normothermia was achieved approximately 60 minutes after cessation of therapy and removal from the survival suit. Approximately 6.5 to 7 hours after treatment the patient experienced chills, an increase in oral temperature to 38.7 degrees centigrade and malaise. IV fluids and the dopamine drip at 2 mcg/kg/min were restarted and the patient was closely observed. Their symptoms subsided over 3 hours and by the next day they felt active and hungry. It was surmised they may have experienced a delayed Jarisch-Herxheimer reaction. The patients monitored treatment flow chart is FIG. 18.

The test system of assay [1] is dimethyl benzo-dithionaphthene derived ascites fibrosarcoma. Kind of assay: DNP induced hyperthermia with thermosensitive liposomes, ascites fibrosarcoma (Example 5). The class given is in vivo, Swiss albino mice. The protocol: The anticancer drug dacarbazine [5-(3,3′-dimethyl-1-triazino) imidazole-4-carboxamide] was encapsulated in these heat-sensitive liposomes at a concentration of 3 mg/ml. The in vivo efficacy of the thermosensitive, liposome encapsulated dacarbazine was tested on Swiss albino mice transplanted with a dimethyl benzo-dithionaphthene derived ascites fibrosarcoma subjected to DNP induced hyperthermia.
Male, 10-12-week-old, Swiss albino mice were injected with 3×10^6 viable fibrosarcoma cells into the peritoneum. After 15 days the animals were divided into various treatment and control groups receiving intraperitoneal injections of free dacarbazine, DNP alone, DNP+empty liposomes and DNP+liposome encapsulated dacarbazine. DNP induced hyperthermia was recorded with neonatal rectal and 22 ga. hypodermic YSI probes. Temperatures were recorded 30 minutes after a 20 mg/kg intraperitoneal dose of DNP. DNP was administered every day for a total of 5 doses. In all cases the hypodermic, intraperitoneal temperatures were 1° C. higher than the rectal.

The test system of a further assay is breast lesion. In words: DNP enhanced infrared imaging, breast carcinoma (Example 8). The class given is in vivo, human. Here is the method:
Prediagnostic protocol: the patient was disrobed to the waist and sat with their hands interlocked over their head for a five minute equilibration period in a draft free, thermally controlled room—kept between 18° C. and 20° C. […] A baseline of 4 images consisting of an anterior, undersurface and 2 lateral views of each breast were generated by an integrated infrared imaging station consisting of a scanning mirror optical system containing a mercury-cadmium-telluride detector (Bales Scientific, CA). […] Images were stored on retrievable laser discs.
Diagnostic treatment protocol: after the above baseline studies were performed, the patient was given an initial intravenous dose of 1 mg/kg DNP and observed for a period of 20 minutes. An additional 2 mg/kg of DNP was then administered and 30 minutes thereafter, they were taken to the thermally controlled room for repeat DNP-enhanced infrared imaging. […] Repeat infrared images were then obtained under the exact protocol used for obtaining baseline studies.

Assay [2] relates to metastatic, hormone-refractory prostate carcinoma. Kind of assay: DNP with methylene blue, prostate carcinoma (Example 9). The class given is in vivo, human. The protocol:
Pretreatment protocol: the patient was transfused with 2 units of packed red blood cells 48 hours prior to undergoing treatment. Intravenous fluids (Lactated Ringer's solution) were administered at a rate of 100 cc/hour. The patient was dressed in comfortable cotton clothing and placed in an air-conditioned room. Equipment for monitoring heart rate and rhythm, temperature and oxygen consumption was utilized as outlined in Example 1. An oral breathing tube was used to conduct TEEM VO2 measurements. Oxygen supplementation and “crash cart” was available at bedside.
Treatment protocol: baseline VO2 measurements for 8 minutes established an average VO2 of 250 cc/minute. DNP, at a dose of 2 mg/kg, was infused intravenously over a 2 minute period. Repeat VO2 at 20 minutes was stabilized at 340-360 cc/minute. An additional 1 mg/kg DNP infusion was administered, and 15 minutes thereafter the VO2 increased and stabilized at 420 cc/minute. Ten minutes thereafter, an infusion of methylene blue, 2 mg/kg (dissolved in a […] pyrogen-free isotonic saline solution-35 ml) was administered over 20 minutes.
By hour 3, VO2 declined to the 360-380 cc/minute range. An additional 1 mg/kg dose of DNP was infused over a 2 minute period. […] Rectal probe temperature increased to a maximum of 1.3° C. over baseline. […] The protocol was repeated every other day for a total of 15 treatments (30 days). Therapy was discontinued for 2 weeks and the cycle was again repeated for an additional 30 days, treatment being administered every other day.

In the case of `O=[N+]([O-])c1ccc(O)c([N+](=O)[O-])c1` [DNP, 2,4-dinitrophenol], the “repeat spinal fluid analysis, Borrelia DNA by PCR” value with Borrelia burgdorferi (after treatment) is “no detectable Borrelia DNA by PCR”. In addition, the “spinal fluid culture on Barbour-Stoenner-Kelly II medium” value with Borrelia burgdorferi (three months later) was “negative”. In addition, in the assay with Borrelia burgdorferi (two months follow-up), the EKG result was “resolution of their first degree A-V block”; the symptoms result was “arthralgias, myalgias, malaise, fatigue and memory deficits have disappeared”. Also, in assay [1] (30 minutes after 20 mg/kg intraperitoneal DNP), the “hypodermic, intraperitoneal temperature higher than the rectal” value turned out to be 1 °C. In addition, in assay [1] (FIG. 20, DNP 20 mg/kg ip every day, 5 doses), the “survival curves in comparison to controls” value is given as “significantly improved”. For the same compound, the animals remained alive in assay [1] (sham treated animals all died by 60) was ≥ 100 days. In the assay with breast lesion (DNP enhanced infrared imaging), the “bilateral global breast temperature increase” value is “approximately 0.5 °C” and the “increase in temperature in the palpable right breast lesion” value came to 2.5 °C. Besides, the “increase in heat production above the DNP baseline increase” value with breast lesion (lesion versus global breast increase of 0.5° C.) worked out at 5 fold. Moreover, the bone pain entry in assay [2] (6th day following therapy, DNP with methylene blue) is “decrease in their low back, hip and other areas of bone pain”. This compound also came in with a PSA values in assay [2] (6 weeks after treatment) of 30 ng/mL. In assay [2] (10 weeks after initiation of treatment), the “tumor necrotic on prostatic biopsy” value came to 95%. Moreover, in assay [2] (by 2 weeks), the analgesic use result is on record as “off all narcotic (morphine) analgesics”. Moreover, in assay [2] (day 8), the acid phosphatase result is on record as “remained unchanged” and the “increase in PSA level” value is on record as “approximately 120%”. Moreover, the PSA level in assay [2] (day 8, pretreatment 58 ng/ml) stood at 125 ng/mL. The repeat prostate biopsy entry in assay [2] (end of month 4, oral DNP 250 mg twice a day after IV therapy) is “very few intact acini or viable acinar cells”. Besides, the weight gained in assay [2] (three months after initiation of therapy) worked out at 8.2 kg.

The values are drawn from patent US7635722B1, “Chemical induced intracellular hyperthermia” (priority 1998, dated 2009).
